The source of these data is US12202835B2, “Substituted aromatic ring-linked dioxinoquinazolines and dioxinoquinolines as kinase inhibitors” (BEIJING SCITECH-MQ PHARMACEUTICALS LIMITED, priority 2018, dated 2025).

The structures appear in SMILES notation.

The target in one assay is TRKA kinase (Homo sapiens (Human), UniProt P04629). The assay is described as follows: Assay of small molecular compounds for inhibiting the activity of TRKA kinase (LANCE TR-FRET). The class given is biochemical. A digest of the protocol:
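TRKA (supplied as 2 nM 2× solution) was pre-reacted with compounds for 5 min at room temperature before a 4× ULight-TK peptide/ATP mix (400 nM/40 μM) started the 60-min dark reaction at 1% DMSO. After stop and 60-min detection, TR-FRET was read.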

A further assay deals with c-MET kinase (Homo sapiens (Human), UniProt P08581). Briefly: Assay of small molecular compounds for inhibiting the activity of c-MET kinase (LANCE TR-FRET). The note with it: read-out: CMET IC50. The class given is biochemical. A digest of the protocol:
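Eleven final concentrations from 2500 nM down to 0.042 nM, in 4% DMSO, were tested against human c-MET (2× stock 2 nM), with compound and enzyme premixed for 5 min. The phosphorylation reaction used 4× stock of 400 nM ULight-JAK-1 peptide and 40 μM ATP for 60 min at room temperature, then stop and detection steps. TR-FRET percent inhibition against positive and negative controls gave the IC50.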

The subject of another assay is Ba/F3-AXL cells. The assay is described as follows: Assay for inhibiting the proliferation of Ba/F3-AXL cells (CCK-8). It counts as cell-based. To be noted: 72 hours of incubation, medium with 100 ng/mL hGas6, CCK-8. The method, then: The values were then imported into Graphpad Prism 5 software for curve fitting, and IC50 was calculated.
For the next assay, the system named is EBC1 cells. The assay is described as follows: Assay for inhibiting the proliferation of EBC1 cells (CCK-8). The class given is cell-based. To be noted: Homo sapiens, EBC-1. A digest of the protocol: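 Cells seeded in 96-well plates overnight, then exposed 72 h to 9 three-fold dilutions of compound (0.25% DMSO final). Viability by CCK-8 (1-2 h at 37° C., OD 450 nm), survival normalized to untreated and cell-free blanks; IC50 by curve fitting.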

Sequence of c-MET kinase (P08581 25-1390): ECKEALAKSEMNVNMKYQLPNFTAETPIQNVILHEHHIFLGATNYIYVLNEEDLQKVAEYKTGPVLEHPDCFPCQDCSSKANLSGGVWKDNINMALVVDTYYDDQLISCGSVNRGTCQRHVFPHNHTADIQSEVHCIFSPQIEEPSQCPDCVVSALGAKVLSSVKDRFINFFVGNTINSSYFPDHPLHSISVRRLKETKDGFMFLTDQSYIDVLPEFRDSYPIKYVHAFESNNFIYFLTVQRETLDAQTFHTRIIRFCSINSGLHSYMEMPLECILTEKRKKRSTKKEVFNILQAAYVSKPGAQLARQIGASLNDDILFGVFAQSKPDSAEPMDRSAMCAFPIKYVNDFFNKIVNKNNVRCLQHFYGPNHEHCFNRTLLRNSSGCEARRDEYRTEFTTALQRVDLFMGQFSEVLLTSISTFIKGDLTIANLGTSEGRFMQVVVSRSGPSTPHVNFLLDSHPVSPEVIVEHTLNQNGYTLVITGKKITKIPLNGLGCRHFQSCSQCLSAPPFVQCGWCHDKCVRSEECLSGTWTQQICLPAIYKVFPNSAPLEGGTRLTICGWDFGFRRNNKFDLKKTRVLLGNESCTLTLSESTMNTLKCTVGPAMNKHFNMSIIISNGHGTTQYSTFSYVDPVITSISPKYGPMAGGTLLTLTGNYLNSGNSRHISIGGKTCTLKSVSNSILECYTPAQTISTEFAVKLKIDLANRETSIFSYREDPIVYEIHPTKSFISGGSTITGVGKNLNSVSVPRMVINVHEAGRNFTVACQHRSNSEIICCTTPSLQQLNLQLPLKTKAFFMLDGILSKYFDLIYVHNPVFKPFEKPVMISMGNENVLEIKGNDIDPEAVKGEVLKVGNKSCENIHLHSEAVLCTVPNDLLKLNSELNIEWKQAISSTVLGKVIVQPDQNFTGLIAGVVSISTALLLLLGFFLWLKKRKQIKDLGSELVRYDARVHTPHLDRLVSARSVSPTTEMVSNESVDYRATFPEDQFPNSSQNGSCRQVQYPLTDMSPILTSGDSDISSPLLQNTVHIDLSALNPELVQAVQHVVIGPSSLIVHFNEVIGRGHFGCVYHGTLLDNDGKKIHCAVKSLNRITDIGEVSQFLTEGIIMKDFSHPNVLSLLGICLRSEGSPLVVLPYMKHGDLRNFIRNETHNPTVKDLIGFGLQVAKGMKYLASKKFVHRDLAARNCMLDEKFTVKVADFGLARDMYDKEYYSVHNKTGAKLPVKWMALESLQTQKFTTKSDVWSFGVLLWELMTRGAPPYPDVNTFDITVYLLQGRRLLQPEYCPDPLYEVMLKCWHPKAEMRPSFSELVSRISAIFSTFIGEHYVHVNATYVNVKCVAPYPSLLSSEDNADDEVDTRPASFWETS
Sequence of TRKA kinase (P04629 33-796): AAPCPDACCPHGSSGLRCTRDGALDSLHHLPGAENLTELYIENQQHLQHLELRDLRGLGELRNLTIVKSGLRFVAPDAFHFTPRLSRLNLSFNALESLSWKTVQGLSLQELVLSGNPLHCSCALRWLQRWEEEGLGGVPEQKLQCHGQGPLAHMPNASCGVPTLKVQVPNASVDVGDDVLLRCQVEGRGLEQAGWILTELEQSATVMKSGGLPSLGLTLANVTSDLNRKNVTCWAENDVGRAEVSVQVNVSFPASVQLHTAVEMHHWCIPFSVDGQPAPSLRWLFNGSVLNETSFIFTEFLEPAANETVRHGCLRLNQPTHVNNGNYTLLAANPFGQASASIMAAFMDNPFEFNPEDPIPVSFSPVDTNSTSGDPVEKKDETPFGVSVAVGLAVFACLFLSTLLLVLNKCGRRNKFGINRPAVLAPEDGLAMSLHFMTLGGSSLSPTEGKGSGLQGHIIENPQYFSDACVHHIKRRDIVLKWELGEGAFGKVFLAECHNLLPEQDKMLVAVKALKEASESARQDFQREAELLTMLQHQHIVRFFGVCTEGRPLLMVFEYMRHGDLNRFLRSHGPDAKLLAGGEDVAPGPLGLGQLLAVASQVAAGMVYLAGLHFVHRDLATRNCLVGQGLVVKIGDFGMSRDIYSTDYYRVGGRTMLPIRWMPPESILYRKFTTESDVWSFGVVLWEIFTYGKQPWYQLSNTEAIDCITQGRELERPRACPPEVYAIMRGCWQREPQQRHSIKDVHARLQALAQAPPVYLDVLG

Take `CC(C)n1cc(C(=O)Nc2ccc(Oc3ccnc4cc(OCCCN5CCC(C)(C)CC5)c5c(c34)OCCO5)c(F)c2)c(=O)n(-c2ccc(F)cc2)c1=O` [Example 92, N-(3-fluoro-4-((5-(3-(4,4-dimethylpiperidin-1-yl)propoxy)-2,3-dihydro-[1,4]dioxino[2,3-f]quinolin-10-yl)oxy)phenyl)-3-(4-fluorophenyl)-1-isopropyl-2,4-dioxo-1,2,3,4-tetrahydropyrimidine-5-carboxamide]: the 50% inhibitory concentration (IC50) on TRKA kinase was below 50 nM; at c-MET kinase it was 50 to 500 nM; with Ba/F3-AXL cells, below 50 nM.

Regarding `CC(C)n1cc(C(=O)Nc2ccc(Oc3ccnc4cc(OCCO)c5c(c34)OCCO5)c(F)c2)c(=O)n(-c2ccc(F)cc2)c1=O` [Example 78, N-(3-fluoro-4-((5-(2-hydroxyethoxy)-2,3-dihydro-[1,4]dioxino[2,3-f]quinolin-10-yl)oxy)phenyl)-3-(4-fluorophenyl)-1-isopropyl-2,4-dioxo-1,2,3,4-tetrahydropyrimidine-5-carboxamide], the concentration for half-maximal inhibition (IC50) against TRKA kinase is below 50 nM; at c-MET kinase, at most 50 nM; with Ba/F3-AXL cells, below 50 nM.

On to `CC(C)Oc1cc2nccc(Oc3ccc(NC(=O)c4cn(C)c(=O)n(-c5ccc(F)cc5)c4=O)cc3F)c2c2c1OCCO2` [Example 88, N-(3-fluoro-4-((5-isopropoxy-2,3-dihydro-[1,4]dioxino[2,3-f]quinolin-10-yl)oxy)phenyl)-3-(4-fluorophenyl)-1-methyl-2,4-dioxo-1,2,3,4-tetrahydropyrimidine-5-carboxamide], for which the results for the half-maximal inhibitory concentration (IC50) at TRKA kinase, on c-MET kinase and with Ba/F3-AXL cells were 50 to 500 nM, at most 50 nM and below 50 nM, respectively.

On to `CCOc1ccn(-c2ccc(F)cc2)c(=O)c1C(=O)Nc1ccc(Oc2ccnc3cc(OCC(C)C)c4c(c23)OCCO4)c(F)c1` [Example 58, N-(4-((5-(isobutyloxy)-2,3-dihydro-[1,4]dioxino[2,3-f]quinolin-10-yl)oxy)-3-fluorophenyl)-4-ethoxy-1-(4-fluorophenyl)-2-oxo-1,2-dihydropyridine-3-carboxamide], for which the concentration for half-maximal inhibition (IC50) against TRKA kinase was 50 to 500 nM; on c-MET kinase it was at most 50 nM; in the assay with Ba/F3-AXL cells, below 50 nM.

On to `Cn1cc(C(=O)Nc2ccc(Oc3ccnc4cc(OC5CCOCC5)c5c(c34)OCCO5)c(F)c2)c(=O)n(-c2ccc(F)cc2)c1=O` [Example 91, N-(3-fluoro-4-((5-((tetrahydropyran-4-yl)oxy)-2,3-dihydro-[1,4]dioxino[2,3-f]quinolin-10-yl)oxy)phenyl)-3-(4-fluorophenyl)-1-methyl-2,4-dioxo-1,2,3,4-tetrahydropyrimidine-5-carboxamide], for which the IC50 against TRKA kinase was below 50 nM; on c-MET kinase it was at most 50 nM; in the assay on Ba/F3-AXL cells it was below 50 nM.

Regarding `CC(C)n1cc(C(=O)Nc2ccc(Oc3ccnc4cc(OCCCO)c5c(c34)OCCO5)c(F)c2)c(=O)n(-c2ccc(F)cc2)c1=O` [Example 79, N-(3-fluoro-4-((5-(3-hydroxypropoxy)-2,3-dihydro-[1,4]dioxino[2,3-f]quinolin-10-yl)oxy)phenyl)-3-(4-fluorophenyl)-1-isopropyl-2,4-dioxo-1,2,3,4-tetrahydropyrimidine-5-carboxamide], the 50% inhibitory concentration (IC50) was below 50 nM against TRKA kinase and at most 50 nM on c-MET kinase.

In the case of `Cn1cc(C(=O)Nc2ccc(Oc3ccnc4cc(OC5CCOC5)c5c(c34)OCCO5)c(F)c2)c(=O)n(-c2ccc(F)cc2)c1=O` (centres unmarked) [Example 90, N-(3-fluoro-4-((5-((tetrahydrofuran-3-yl)oxy)-2,3-dihydro-[1,4]dioxino[2,3-f]quinolin-10-yl)oxy)phenyl)-3-(4-fluorophenyl)-1-methyl-2,4-dioxo-1,2,3,4-tetrahydropyrimidine-5-carboxamide], the IC50 is below 50 nM against TRKA kinase, at most 50 nM on c-MET kinase and below 50 nM with Ba/F3-AXL cells.

Take `CCOc1cn(-c2ccc(F)cc2C)nc1C(=O)Nc1ccc(Oc2ncnc3cc(OCCCN4CCOCC4)c4c(c23)OCCO4)c(F)c1` [Example 12, 1-(4-fluoro-2-methylphenyl)-N-(3-fluoro-4-((5-(3-morpholinopropoxy)-2,3-dihydro-[1,4]dioxino[2,3-f]quinazolin-10-yl)oxy)phenyl)-4-ethoxy-1H-pyrazole-3-carboxamide]: the IC50 at c-MET kinase is at most 50 nM; with EBC1 cells it was 200 to 1000 nM.

`COCCOc1cc2nccc(Oc3ccc(NC(=O)c4cn(C(C)C)c(=O)n(-c5ccc(F)cc5)c4=O)cc3F)c2c2c1OCCO2` [Example 43, N-(3-fluoro-4-((5-(2-methoxyethoxy)-2,3-dihydro-[1,4]dioxino[2,3-f]quinolin-10-yl)oxy)phenyl)-3-(4-fluorophenyl)-1-isopropyl-2,4-dioxo-1,2,3,4-tetrahydropyrimidine-5-carboxamide]: the half-maximal inhibitory concentration (IC50) at TRKA kinase is 50 to 500 nM; at c-MET kinase, at most 50 nM; in the assay with Ba/F3-AXL cells, below 50 nM.

As for `CCOc1ccn(-c2ccc(F)cc2)c(=O)c1C(=O)Nc1ccc(Oc2ncnc3cc(OC)c4c(c23)OCCO4)c(F)c1` [Example 3, N-(3-fluoro-4-((5-methoxy-2,3-dihydro-[1,4]dioxino[2,3-f]quinazolin-10-yl)oxy)phenyl)-1-(4-fluorophenyl)-4-ethoxy-2-oxo-1,2-dihydropyridine-3-carboxamide], the IC50 at TRKA kinase was below 50 nM; on c-MET kinase it was at most 50 nM; in the assay on EBC1 cells, 50 to 200 nM.

Take `CC(C)n1cc(C(=O)Nc2ccc(Oc3ccnc4cc(OCCCN5CCS(=O)(=O)CC5)c5c(c34)OCCO5)c(F)c2)c(=O)n(-c2ccc(F)cc2)c1=O` [Example 76, N-(3-fluoro-4-((5-(3-(1,1-dioxidothiomorpholino)propoxy)-2,3-dihydro-[1,4]dioxino[2,3-f]quinolin-10-yl)oxy)phenyl)-3-(4-fluorophenyl)-1-isopropyl-2,4-dioxo-1,2,3,4-tetrahydropyrimidine-5-carboxamide]: the IC50 at TRKA kinase is below 50 nM; at c-MET kinase, 50 to 500 nM; with Ba/F3-AXL cells, below 50 nM.

Turning to `CC(C)n1cc(C(=O)Nc2ccc(Oc3ccnc4cc(OCCCN5CCC(C)(N)CC5)c5c(c34)OCCO5)c(F)c2)c(=O)n(-c2ccc(F)cc2)c1=O` [Example 93, N-(3-fluoro-4-((5-(3-(4-amino-4-methylpiperidin-1-yl)propoxy)-2,3-dihydro-[1,4]dioxino[2,3-f]quinolin-10-yl)oxy)phenyl)-3-(4-fluorophenyl)-1-isopropyl-2,4-dioxo-1,2,3,4-tetrahydropyrimidine-5-carboxamide], the figures for the half-inhibitory concentration (IC50) against TRKA kinase, at c-MET kinase and with Ba/F3-AXL cells were below 50 nM, at most 50 nM and below 50 nM, respectively.

For the molecule `COc1cn(-c2ccc(F)cc2C)nc1C(=O)Nc1ccc(Oc2ncnc3cc(OCCCN4CCOCC4)c4c(c23)OCCO4)c(F)c1` [Example 11, 1-(4-fluoro-2-methylphenyl)-N-(3-fluoro-4-((5-(3-morpholinopropoxy)-2,3-dihydro-[1,4]dioxino[2,3-f]quinazolin-10-yl)oxy)phenyl)-4-methoxy-1H-pyrazole-3-carboxamide], the IC50 was at most 50 nM at c-MET kinase and 200 to 1000 nM with EBC1 cells.

Turning to `CCOc1ccn(-c2ccc(F)cc2)c(=O)c1C(=O)Nc1ccc(Oc2ccnc3cc(OCC4CC4)c4c(c23)OCCO4)c(F)c1` [Example 59, N-(4-((5-(cyclopropylmethoxy)-2,3-dihydro-[1,4]dioxino[2,3-f]quinolin-10-yl)oxy)-3-fluorophenyl)-4-ethoxy-1-(4-fluorophenyl)-2-oxo-1,2-dihydropyridine-3-carboxamide], the results for the IC50 against TRKA kinase, on c-MET kinase and with Ba/F3-AXL cells were 50 to 500 nM, at most 50 nM and below 50 nM, respectively.

With `CC(=O)N1CCN(CCCOc2cc3nccc(Oc4ccc(NC(=O)c5cn(C(C)C)c(=O)n(-c6ccc(F)cc6)c5=O)cc4F)c3c3c2OCCO3)CC1` [Example 75, N-(3-fluoro-4-((5-(3-(4-acetylpiperazin-1-yl)propoxy)-2,3-dihydro-[1,4]dioxino[2,3-f]quinolin-10-yl)oxy)phenyl)-3-(4-fluorophenyl)-1-isopropyl-2,4-dioxo-1,2,3,4-tetrahydropyrimidine-5-carboxamide], the IC50 is below 50 nM against TRKA kinase and at most 50 nM at c-MET kinase.

For `CC(C)n1cc(C(=O)Nc2ccc(Oc3ccnc4cc(OCCCN5CCCC5)c5c(c34)OCCO5)c(F)c2)c(=O)n(-c2ccc(F)cc2)c1=O` [Example 77, N-(3-fluoro-4-((5-(3-(pyrrolidin-1-yl)propoxy)-2,3-dihydro-[1,4]dioxino[2,3-f]quinolin-10-yl)oxy)phenyl)-3-(4-fluorophenyl)-1-isopropyl-2,4-dioxo-1,2,3,4-tetrahydropyrimidine-5-carboxamide], the values for the IC50 on TRKA kinase, at c-MET kinase and in the assay with Ba/F3-AXL cells were below 50 nM, at most 50 nM and below 50 nM, respectively.

On to `CCOc1ccn(-c2ccc(F)cc2)c(=O)c1C(=O)Nc1ccc(Oc2ccnc3cc(OCCCN4CCCC4)c4c(c23)OCCO4)c(F)c1` [Example 52, N-(4-((5-(3-(pyrrolidin-1-yl)propoxy)-2,3-dihydro-[1,4]dioxino[2,3-f]quinolin-10-yl)oxy)-3-fluorophenyl)-4-ethoxy-1-(4-fluorophenyl)-2-oxo-1,2-dihydropyridine-3-carboxamide], for which the IC50 at TRKA kinase was below 50 nM; at c-MET kinase, at most 50 nM; with Ba/F3-AXL cells, below 50 nM.
